We go through five compounds from patent publication US9545410B2, “Tyrosine kinase inhibitors as anti-kinetoplastid agents” (UNIVERSITY OF GEORGIA RESEARCH FOUNDATION, INC., priority 2006, dated 2017).

Like-named read-outs stand apart in the source and are kept apart here.

Data set [1] relates to blood stream T. brucei strain 427. Put plainly: Cultured bloodstream T. brucei growth/viability, parasites counted with a haemocytometer. It counts as cell-based, Trypanosoma brucei. Conditions: for concentration at which all parasites were killed / no parasites survived: blood stream T. brucei strain 427, 37° C. for 40 hours. The protocol: Cultured trypanosomes (seeded at 10^4/ml) in 100 μl of a 96-well plate received varying amounts of Tyrphostin A47 (Sigma). Parasites were counted with a haemocytometer after 48 hours in culture. Data are means of triplicate determinations, they are representative of three independent trials. Blood stream form of T. brucei were used for these studies since that stage of the parasite causes disease in humans. Inhibitory concentration 50 (IC50) is the drug concentration which reduces the growth rate by 50%. Minimum inhibitory concentration (MIC) is the lowest concentration which killed all the parasites.
T. brucei strain 427 was cultured axenically and seeded at 10^4 cells/ml in 200 μl of medium a 96-well plate. Tyrphostin AG1478 (Sigma) (Zhu et al., 2001, Cancer Lett; 169:27-32; Shushan et al., 2004, Hum Reprod; 19:1957-1967) was added to the stated final concentrations, cells were incubated at 37° C. for 40 hours, and parasites were counted with a haemocytometer. Data are mean values representative of two independent trials each of which was performed in triplicate. T. brucei replicates every 8-10 hours.
The 4-anilinoquinazoline canertinib (also referred to as C1-1033) is an inhibitor of EGFR kinase (Dewji, 2004, J Chemotherapy; 16(Suppl 4):44-48; Hamid, 2004, J Am Pharm Assoc; 44:52-58). To test the trypanocidal activity of canertinib, culture of blood stream T. brucei strain 427 was initiated in 24-well plates at 10^4 cells/ml (in 500 μl of medium (Hirumi and Hirumi, 1991, Parasitology; 102(Pt 2):225-236)). Canertinib (Heymach et al., 2006, Clin Cancer Res; 12:4441s) (provided by Pfizer) was added to the stated final concentrations, and cells were incubated at 37° C. for 40 hours. Control cells received an equal volume of solvent (DMSO). Parasites were counted with a haemocytometer. Data plotted are mean values of quadruplicate determinations from one of three independent trials that produced similar results.
This example also determined that erlotinib (TARCEVA), a 4-anilinoquinazoline tyrosine kinase inhibitor is trypanocidal. erlotinib (TARCEVA), like canertinib, is an inhibitor of EGFR kinase (Bulgaru et al., 2003, Expert Rev Anticancer Ther; 3(3):269-79; Akita and Sliwkowski, 2003, Semin Oncol; 30(3 Suppl 7):15-24). The culture of blood stream T. brucei strain 427 was initiated in 24-well plates at 10^4 cells/ml in 500 μl of medium (Hirumi and Hirumi, 1991, Parasitology; 102 Pt 2:225-236). Erlotinib (TARCEVA) (provided by Genentech/OSI), was added to the stated final concentrations shown in FIG. 4, and cells were incubated at 37° C. for 40 hours.
This example presents data showing sunitinib and axitinib (both provided by Pfizer) are trypanocidal. Sunitinib (also known as SU11248 and marketed under the trade name SUTENT) inhibits VEGFR, PDGF, and c-Kit kinases (reviewed in Steeghs et al., 2007, Ann Surg Oncol; 14(2):942-53) and is approved by the Food and Drug Administration for treatment of renal cell carcinoma. […] Therefore, this example tests whether sunitinib (SUTENT) compromised T. brucei viability. To blood stream form T. brucei 427 (seeded at 10^4 cells/ml in 500 μl of medium) sunitinib (SUTENT) (Abrams et al., 2003, Mol Cancer Ther; 2:471-478; Mendel et al., 2003, Clin Cancer Res; 9:327-337) was added to the stated final concentrations and cells were incubated at 37° C. for 40 hours. Parasites were counted with a haemocytometer. Data plotted are mean values of quadruplicate determinations from a representative experiment.

The conditions of data set [2]: cited from earlier work.
Setting [3] is: Trypanosoma brucei, blood stream T. brucei strain 427 seeded at 10^4 cells/ml, 37° C. for 40 hours, read-out: IC50.

For `CCN(CC)CCNC(=O)c1c(C)[nH]c(/C=C2\C(=O)Nc3ccc(F)cc32)c1C` [SUTENT, N-[2-(diethylamino)ethyl]-5-[(Z)-(5-fluoro-1,2-dihydro-2-oxo-3H-indol-3-ylidine)methyl]-2,4-dimethyl-1H-pyrrole-3-carboxamide], the “trypanocidal effect on T. brucei (in words)” value in data set [1] (blood stream form T. brucei 427, 37° C. for 40 hours) is “kills T. brucei at low micromolar levels”.
With `N#C/C(=C\c1ccc(O)c(O)c1)C(N)=S` [Tyrphostin A47], in data set [1] (blood stream form T. brucei seeded at 10^4/ml, 96-well plate, counted after 48 hours, read-out: IC50 (drug concentration which reduces the growth rate by 50%)), the IC50 was 1000 to 5000 nM.
For `COc1cc2ncnc(Nc3cccc(Cl)c3)c2cc1OC` [Tyrphostin AG1478], the IC50 in data set [1] (blood stream T. brucei strain 427 seeded at 10^4 cells/ml, 37° C. for 40 hours, read-out: IC50) was 2500 to 5000 nM.
Turning to `C=CC(=O)Nc1cc2c(Nc3ccc(F)c(Cl)c3)ncnc2cc1OCCCN1CCOCC1` [canertinib, N-[−4-[(3-chloro-4-fluorophenyl)amino]-7-[3-(4-morpholinyl)propoxy]-6-quinazolinyl]-2-propenamide], the IC50 in data set [1] (setting [3]) worked out at 1000 nM. Besides, the “concentration at which all parasites were killed / no parasites survived” value in data set [1] is “Above 4 μM”.
For `C#Cc1cccc(Nc2ncnc3cc(OCCOC)c(OCCOC)cc23)c1` [erlotinib, N-(3-ethynylphenyl)-6,7-bis(2-methoxyethoxy)quinazolin-4-amine], the figures for the plasma concentration in data set [2] (human patients receiving a cycle of 150 mg/day) and in data set [2] (single dose) were 60 µM and 2 µM, respectively. Further, in data set [1] (setting [3]), the IC50 is roughly 1700 nM. Besides, the “concentration at which all parasites were killed / no parasites survived” value in data set [1] was determined as 10 µM.
